# Data as given in ChEMBL document CHEMBL1130648, “The synthesis of a new type of anthracene DNA intercalator” (Bioorg Med Chem Lett, 1998).
# Tested on: Nucleic Acid
# Test: Compound was tested for binding affinity against CT DNA.
# Type: nucleic-acid assay
# Conditions: Bos taurus
row,Compound,Binding affinity
1,NCc1c2ccccc2cc2ccccc12,10000 M⁻¹
2,COc1cc2c(CCCN)c3cc(OC)c(OC)cc3c(CCCN)c2cc1OC,40000 M⁻¹
